Laboratory results as given in patent US20080182859A1 (Curis, Inc., priority 2006, published 2008).
Counter-ions that a name gives are not always drawn.

Tests used:
[1] = system: sonic hedgehog pathway; assay: Human hedgehog reporter assay Daoy-GliLuc (DGL); assay type: cell-based; settings: Daoy human medulloblastoma cells, Gli-luciferase reporter
How it was run: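 Stable Gli-promoter luciferase reporter lines (human HepM, Daoy; mouse S12) plated at 10,000–20,000 cells/well, switched to 0.5% FBS after 48–72 h, then given compound (1–5 μM; 11-point 1:3 dose curves) with or without octyl-modified hedgehog protein (1–5 ng/ml) for 24 h. Luminescence read; AMAX vs plate controls and EC50 derived.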

[2] = system: sonic hedgehog pathway; assay: Hedgehog pathway Gli-luciferase reporter assay, S12 cells; assay type: cell-based; settings: S12 mouse embryonic mesenchymal cells
From the text: Mouse (TM3: mouse Leydig cells; S12: mouse embryonic mesenchymal cells) and human (Daoy: human medulloblastoma cell; HepM: human embryonic palatal mesenchymal cell) cell lines are used to screen small molecules for their ability to modulate the activity of the sonic hedgehog pathway (Table 1, Table 2, and Table 3). Stable hedgehog pathway reporter cell lines are established by specific antibiotic selection following transfection of a reporter plasmid containing a luciferase gene located directly downstream from the gli promoter. Consequently, any observable changes in cellular luciferase activity may be attributed to changes in sonic hedgehog pathway activity in mouse and human cells, respectively, since gli is the major by-product of this pathway. To calculate activity, we generate an eleven point dose curve for each compound using 1:3 dilutions in 96 well assay plates. Each plate tested also contains low and high control to establish maximal pathway activation so to establish/compare a percentage activation of each tested compound (AMAX) on respective plates. Also we calculate EC50 values, or a concentration where the pathway will be exactly 50% activated, for each tested compound to determine potency. In these cell lines, compounds that register >20% AMAX values are considered active.
Stable hedgehog pathway reporter cell lines are established following specific antibiotic selection following transfection of a reporter plasmid In short, typically cells are plated in MicroTiter-plates at 10,000-20,000 cells per well, in growth media (containing 10%-20% FBS). After 48-72 hrs (HGL and DGL respectively) the media in the assay plates is switched to low-serum containing media (0.5% FBS). At that time compounds are added (at 1-5 μM) to the assay plates, in the presence or absence of hedgehog protein (octyl-modified version; 1-5 ng/ml). After another 24 hrs of incubation, the media from the assay plates is discarded and replaced with luciferase assay-mix. Subsequently, plates are incubated at RT for ˜15-30 mins and then read in a luminometer. [note: addition of the Hedgehog protein, although not critical, will sensitize the assay allowing the identification of weak actives].

[3] = read-out: Human Daoy (Gli-Luc) Avg. EC50

SMILES | EC50 [1, 3] [nM] | EC50 ([2]; read-out: Mouse S12 Avg. EC50) [nM] | EC50 ([1]; read-out: Daoy Avg. EC50) [nM] | EC50 ([2]; read-out: S12 Avg. EC50) [nM]
CN[C@H]1CC[C@@H](N(Cc2cc(-c3ccc([S+](C)[O-])cc3)ccc2OC)C(=O)c2sc3c(F)ccc(F)c3c2Cl)CC1 (some centres unmarked) [Compound 377, 3-Chloro-4,7-difluoro-benzo[b]thiophene-2-carboxylic acid (4′-methanesulfinyl-4-methoxy-biphenyl-3-ylmethyl)-(4-methylamino-cyclohexyl)-amide trifluoroacetate] | < 50 | < 50 | – | –
CNC1CCC(N(Cc2cc(-c3cccnc3F)ccc2OC)C(=O)c2sc3c(F)ccc(F)c3c2Cl)CC1 (centres unmarked) [Compound 378, 3-Chloro-4,7-difluoro-benzo[b]thiophene-2-carboxylic acid [5-(2-fluoro-pyridin-3-yl)-2-methoxy-benzyl]-(4-methylamino-cyclohexyl)-amide] | < 50 | < 50 | – | –
CNC1CCC(N(Cc2cc(-c3ccc(F)nc3)ccc2OC)C(=O)c2sc3c(F)ccc(F)c3c2Cl)CC1 (centres unmarked) [Compound 379, 3-Chloro-4,7-difluoro-benzo[b]thiophene-2-carboxylic acid [5-(6-fluoro-pyridin-3-yl)-2-methoxy-benzyl]-(4-methylamino-cyclohexyl)-amide] | < 50 | < 50 | – | –
CNC1CCC(N(Cc2cc(-c3cncc(F)c3)ccc2OC)C(=O)c2sc3c(F)ccc(F)c3c2Cl)CC1 (centres unmarked) [Compound 380, 3-Chloro-4,7-difluoro-benzo[b]thiophene-2-carboxylic acid [5-(5-fluoro-pyridin-3-yl)-2-methoxy-benzyl]-(4-methylamino-cyclohexyl)-amide] | < 50 | < 50 | – | –
CN[C@H]1CC[C@@H](N(Cc2cc(-c3cccnc3F)ccc2OC)C(=O)c2sc3cccc(F)c3c2Cl)CC1 [Compound 381] | < 50 | < 50 | – | –
CNC1CCC(N(Cc2cc(-c3ccc(F)nc3)ccc2OC)C(=O)c2sc3cccc(F)c3c2Cl)CC1 (centres unmarked) [Compound 382, 3-Chloro-4-fluoro-benzo[b]thiophene-2-carboxylic acid [5-(6-fluoro-pyridin-3-yl)-2-methoxy-benzyl]-(4-methylamino-cyclohexyl)-amide] | < 50 | < 50 | – | –
CN[C@H]1CC[C@@H](N(Cc2cc(-c3cncc(F)c3)ccc2OC)C(=O)c2sc3cccc(F)c3c2Cl)CC1 [Compound 383, 3-chloro-4-fluoro-N-(5-(5-fluoropyridin-3-yl)-2-methoxybenzyl)-N-((1s,4s)-4-(methylamino)cyclohexyl)benzo[b]thiophene-2-carboxamide] | < 50 | < 50 | – | –
CNC1CCC(N(Cc2cc(-c3ccnc(F)c3)ccc2OC)C(=O)c2sc3c(F)ccc(F)c3c2Cl)CC1 (centres unmarked) [Compound 384, 3-Chloro-4,7-difluoro-benzo[b]thiophene-2-carboxylic acid [5-(2-fluoro-pyridin-4-yl)-2-methoxy-benzyl]-(4-methylamino-cyclohexyl)-amide] | < 50 | < 50 | – | –
CNC1CCC(N(Cc2cc(-c3ccnc(F)c3)ccc2OC)C(=O)c2sc3cccc(F)c3c2Cl)CC1 (centres unmarked) [Compound 385, 3-Chloro-4-fluoro-benzo[b]thiophene-2-carboxylic acid [5-(2-fluoro-pyridin-4-yl)-2-methoxy-benzyl]-(4-methylamino-cyclohexyl)-amide] | < 50 | < 50 | – | –
CNC1CCC(N(Cc2cc(-c3ccncc3F)ccc2OC)C(=O)c2sc3c(F)ccc(F)c3c2Cl)CC1 (centres unmarked) [Compound 386, 3-Chloro-4,7-difluoro-benzo[b]thiophene-2-carboxylic acid [5-(3-fluoro-pyridin-4-yl)-2-methoxy-benzyl]-(4-methylamino-cyclohexyl)-amide] | < 50 | < 50 | – | –
CNC1CCC(N(Cc2cc(-c3ccncc3F)ccc2OC)C(=O)c2sc3cccc(F)c3c2Cl)CC1 (centres unmarked) [Compound 387, 3-Chloro-4-fluoro-benzo[b]thiophene-2-carboxylic acid [5-(3-fluoro-pyridin-4-yl)-2-methoxy-benzyl]-(4-methylamino-cyclohexyl)-amide] | < 50 | < 50 | – | –
CN[C@H]1CC[C@@H](N(Cc2cc(-c3ccc(S(N)(=O)=O)cc3)ccc2OC)C(=O)c2sc3c(F)ccc(F)c3c2Cl)CC1 [Compound 388, 3-Chloro-4,7-difluoro-benzo[b]thiophene-2-carboxylic acid (4-methoxy-4′-sulfamoyl-biphenyl-3-ylmethyl)-(4-methylamino-cyclohexyl)-amide hydrochloride] | < 50 | < 50 | – | –
CCS(=O)(=O)c1ccc(-c2ccc(OC)c(CN(C(=O)c3sc4c(F)ccc(F)c4c3Cl)[C@H]3CC[C@@H](NC)CC3)c2)cc1 [Compound 389, 3-Chloro-4,7-difluoro-benzo[b]thiophene-2-carboxylic acid (4′-ethanesulfonyl-4-methoxy-biphenyl-3-ylmethyl)-(4-methylamino-cyclohexyl)-amide hydrochloride] | < 50 | < 50 | – | –
COc1ccc(-c2ccc(S(C)(=O)=O)cc2)cc1CN(C(=O)c1sc2c(F)ccc(F)c2c1Cl)[C@H]1CC[C@@H](N)CC1 [Compound 390, 3-Chloro-4,7-difluoro-benzo[b]thiophene-2-carboxylic acid (4-amino-cyclohexyl)-(4′-methanesulfonyl-4-methoxy-biphenyl-3-ylmethyl)-amide hydrochloride] | < 50 | < 50 | – | –
CN[C@H]1CC[C@@H](N(Cc2cc(-c3ccc(S(=O)(=O)N(C)C)cc3)ccc2OC)C(=O)c2sc3c(F)ccc(F)c3c2Cl)CC1 [Compound 391, 3-Chloro-4,7-difluoro-benzo[b]thiophene-2-carboxylic acid (4′-dimethylsulfamoyl-4-methoxy-biphenyl-3-ylmethyl)-(4-methylamino-cyclohexyl)-amide trifluoroacetate] | < 50 | < 50 | – | –
CN[C@H]1CC[C@@H](N(Cc2cc(-c3ccncc3)ccc2C)C(=O)c2sc3c(F)ccc(F)c3c2Cl)CC1 [Compound 392, 3-Chloro-4,7-difluoro-benzo[b]thiophene-2-carboxylic acid (4-methylamino-cyclohexyl)-(2-methyl-5-pyridin-4-yl-benzyl)-amide bis(trifluoroacetate)] | < 50 | < 50 | – | –
C=Cc1ccc(-c2ccc(OC)c(CN(C(=O)c3sc4c(F)ccc(F)c4c3Cl)[C@H]3CC[C@@H](N)CC3)c2)cc1 [Compound 393, N-((1r,4r)-4-aminocyclohexyl)-3-chloro-4,7-difluoro-N-((4-methoxy-4′-vinylbiphenyl-3-yl)methyl)benzo[b]thiophene-2-carboxamide] | 50 to 250 | 50 to 250 | – | –
CN[C@H]1CC[C@@H](N(Cc2cc(OC)cc(-c3ccncc3)c2)C(=O)c2sc3c(F)ccc(F)c3c2Cl)CC1 [Compound 394, 3-Chloro-4,7-difluoro-benzo[b]thiophene-2-carboxylic acid (3-methoxy-5-pyridin-4-yl-benzyl)-(4-methylamino-cyclohexyl)-amide bis(trifluoroacetate)] | < 50 | < 50 | – | –
CCc1ccc(-c2ccncc2)cc1CN(C(=O)c1sc2c(F)ccc(F)c2c1Cl)[C@H]1CC[C@@H](NC)CC1 [Compound 395, 3-Chloro-4,7-difluoro-benzo[b]thiophene-2-carboxylic acid (2-ethyl-5-pyridin-4-yl-benzyl)-(4-methylamino-cyclohexyl)-amide dihydrochloride] | 50 to 250 | 50 to 250 | – | –
CN[C@H]1CC[C@H](N(Cc2cc(-c3ccccc3SC)ccc2OC)C(=O)c2sc3c(F)ccc(F)c3c2Cl)CC1 [Compound 408, 3-Chloro-4,7-difluoro-benzo[b]thiophene-2-carboxylic acid (4-methoxy-2′-methylsulfanyl-biphenyl-3-ylmethyl)-(4-methylamino-cyclohexyl)-amide hydrochloride] | – | – | 250 to 1000 | 250 to 1000
CN[C@H]1CC[C@H](N(Cc2cc(-c3ccccc3[S+](C)[O-])ccc2OC)C(=O)c2sc3c(F)ccc(F)c3c2Cl)CC1 (some centres unmarked) [Compound 409, 3-Chloro-4,7-difluoro-benzo[b]thiophene-2-carboxylic acid (2′-methanesulfinyl-4-methoxy-biphenyl-3-ylmethyl)-(4-methylamino-cyclohexyl)-amide trifluoroacetate] | – | – | 1000 to 2500 | 250 to 1000
COc1ccc(-c2cccnc2)cc1CN(C(=O)c1sc2cccc(F)c2c1Cl)[C@H]1CC[C@@H](N)CC1 [Compound 410, 3-Chloro-4-fluoro-benzo[b]thiophene-2-carboxylic acid (4-amino-cyclohexyl)-(2-methoxy-5-pyridin-3-yl-benzyl)-amide] | – | – | < 50 | < 50
